Values of other authors, collected in patent US8604163B2, “EEF2K assays for identifying compounds that inhibit EEF2K activity” (University of Medicine and Dentistry of New Jersey, priority 2009, dated 2013).

Test system: glioma cell lines
Details: by inhibiting eEF2-K; Parmer et al. 1997

CC(=O)c1c(O)c(C)c(O)c(Cc2c(O)c3c(c(C(=O)/C=C/c4ccccc4)c2O)OC(C)(C)C=C3)c1O [rottlerin]
growth of glioma cell lines: inhibit growth of glioma cell lines
